Where “and” joins values, the source holds several entries; their conditions need not be identical. Equal entries are not always repeated.
How the values were obtained:
Human JNK1α1 = Human JNK1α1 (Homo sapiens, UniProt P45983); assay: JNK assay in vitro, phosphorylation of GST-ATF2 (19-96) with [γ-33P] ATP; assay type: biochemical; details: Human JNK1α1, 2 nM enzyme, 1 μM ATF2, 6 μM ATP (Km); read-out: JNK1 - IC50
Procedure: (§1) JNK activity was measured by phosphorylation of GST-ATF2 (19-96) with [γ-^33P] ATP. The enzyme reaction was conducted at Km concentrations of ATP and the substrate at final volume of 40 μl in buffer containing 25 mM HEPES, pH 7.5, 2 mM dithiothreitol, 150 mM NaCl, 20 mM MgCl2, 0.001% Tween® 20, 0.1% BSA and 10% DMSO. Human JNK2α2 assay contains 1 nM enzyme, 1 μM ATF2, 8 μM ATP with 1 uCi [γ-^33P] ATP. Human JNK1α1 assay contains 2 nM enzyme, 1 μM ATF2, 6 μM ATP with 1 μCi [γ-^33P] ATP. Human JNK3 (Upstate Biotech #14-501M) assay contains 2 nM enzyme, 1 μM ATF2, 4 μM ATP with 1 μCi [γ-^33P] ATP. The enzyme assay was carried out in the presence or absence of several compound concentrations. JNK and compound were pre-incubated for 10 min., followed by initiation of the enzymatic reaction by adding ATP and the substrate. The reaction mixture was incubated at 30° C. for 30 min. At the end of incubation, the reaction was terminated by transferring 25 μl of the reaction mixture to 150 μl of 10% glutathione Sepharose® slurry (Amersham #27-4574-01) containing 135 mM EDTA. The reaction product was captured on the affinity resin, and washed on a filtration plate (Millipore, MABVNOB50) with phosphate buffered saline for six times to remove free radionucleotide. The incorporation of ^33P into ATF2 was quantified on a microplate scintillation counter (Packard Topcount). Compound inhibition potency on JNK was measured by IC50 value generated from ten concentration inhibition curves fitted into the 3-parameter model: % inhibition=Maximum/(1+(IC50/[Inhibitor])^slope). Data were analyzed on Microsoft Excel for parameter estimation.

Human JNK2α2 = Human JNK2α2 (Homo sapiens, UniProt P45984); assay: as above; assay type: biochemical; details: Human JNK2α2, 1 nM enzyme, 1 μM ATF2, 8 μM ATP (Km); read-out: JNK2 - IC50
Procedure: as §1

phospho-c-Jun = assay: Phospho-c-Jun translocation assay in TNFα-activated SW1353 cells; assay type: cell-based; details: Homo sapiens, TNFα 1 ng/ml for 20 min, 30 min compound pre-incubation
Excerpt: Inflammation is regulated in part by the action of c-Jun on other genes in the inflammatory pathway. Thus, inhibition of phosphorylated c-Jun translocation to the nucleus provides an indication of the anti-inflammatory activity of a compound. SW1353 cells were purchased from the American Tissue Culture Collection and maintained in growth media containing DMEM medium (Invitrogen) with 10% fetal bovine serum (Invitrogen), ascorbic acid (Sigma), and penicillin/streptomycin/[…] (Invitrogen) under culture conditions (at 37° C. with 5% CO2). Cells were plated at a density of 8,000 cells/well in 100 μl growth medium 24 h prior to the compound treatment. Immediately before the compound treatment, growth media was replaced with 90 μl of fresh media. Compound stock at 10 mM was first diluted in compound vehicle (DMSO) to 3 mM, then diluted in serum-free medium and added to each well as a 10× concentrated solution in a volume of 10 μl, mixed, and pre-incubated with cells for 30 min at 37° C. in 5% CO2. Compound vehicle (DMSO) was maintained at a final concentration of 1% for all samples. After 30 min incubation, the cells were activated with TNFα (1 ng/ml, Roche Biochem) for 20 min. Cells were then fixed, permeabilized, and stained with anti-phospho-c-Jun antibody (Santa Cruz), followed by Alexa Fluor 488 labeled secondary antibody and Hoechet 33342 dye (Invitrogen) per manufacturer's instructions. The signals of phospho-c-Jun were measured for 400 cells per well by the ArrayScan HCS system (Cellomic). The IC50 values were calculated as the concentration of the compound at which the phospho-c-Jun activity was inhibited to 50% of the control value using the 4-parameter fitting function in the ActivityBase program (IDBS).

Chain of Human JNK1α1 (P45983 1-384 isoform P45983-2): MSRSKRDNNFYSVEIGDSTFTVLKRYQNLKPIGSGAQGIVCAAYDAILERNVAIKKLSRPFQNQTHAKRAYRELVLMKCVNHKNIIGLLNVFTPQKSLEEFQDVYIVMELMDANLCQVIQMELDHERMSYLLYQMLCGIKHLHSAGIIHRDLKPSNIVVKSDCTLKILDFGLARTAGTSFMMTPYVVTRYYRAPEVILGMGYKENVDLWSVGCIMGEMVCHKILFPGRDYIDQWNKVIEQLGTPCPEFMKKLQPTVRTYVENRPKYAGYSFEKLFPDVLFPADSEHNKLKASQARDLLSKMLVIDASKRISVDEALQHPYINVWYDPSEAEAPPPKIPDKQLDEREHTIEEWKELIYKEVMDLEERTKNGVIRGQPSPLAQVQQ
Chain of Human JNK2α2 (P45984 whole entry): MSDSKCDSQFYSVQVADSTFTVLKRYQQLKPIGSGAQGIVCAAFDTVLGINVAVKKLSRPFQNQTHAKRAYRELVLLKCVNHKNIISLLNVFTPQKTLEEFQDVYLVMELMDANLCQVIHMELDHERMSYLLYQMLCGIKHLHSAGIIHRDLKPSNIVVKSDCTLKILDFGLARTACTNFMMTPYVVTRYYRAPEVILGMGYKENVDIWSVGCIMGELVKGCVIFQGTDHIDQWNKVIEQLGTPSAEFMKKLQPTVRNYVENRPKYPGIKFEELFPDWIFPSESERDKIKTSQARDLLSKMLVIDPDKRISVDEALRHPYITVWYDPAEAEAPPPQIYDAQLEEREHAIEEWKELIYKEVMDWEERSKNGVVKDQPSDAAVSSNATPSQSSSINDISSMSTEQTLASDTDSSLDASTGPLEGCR

SMILES	IC50 (Human JNK1α1) [nM]	IC50 (Human JNK2α2) [nM]	melting point	IC50 (phospho-c-Jun) [nM]
Cc1cscc1-c1cccc2c1ccn2-c1ccnc(N[C@H]2CC[C@H](C(=O)N3CCC(O)CC3)CC2)n1 [Compound 7, (4-Hydroxy-piperidin-1-yl)-(4-{4-[4-(4-methyl-thiophen-3-yl)-indol-1-yl]-pyrimidin-2-ylamino}-cyclohexyl)-methanone]	33.1	98.7	168 to 188 °C	8370
Cc1ccncc1-c1cccc2c1ccn2-c1ccnc(N[C@H]2CC[C@H](C(=O)N3CCC(O)CC3)CC2)n1 [Compound 14, (4-Hydroxy-piperidin-1-yl)-(4-{4-[4-(4-methyl-pyridin-3-yl)-indol-1-yl]-pyrimidin-2-ylamino}-cyclohexyl)-methanone]	87.7	341	176 to 178 °C	
O=C([C@H]1CC[C@H](Nc2nccc(-n3ccc4c(-c5ccncc5)cccc43)n2)CC1)N1CCC(O)CC1 [Compound 16, (4-Hydroxy-piperidin-1-yl)-{4-[4-(4-pyridin-4-yl-indol-1-yl)-pyrimidin-2-ylamino]-cyclohexyl}-methanone]	44	175	258 to 259 °C	2520
O=C([C@H]1CC[C@H](Nc2nccc(-n3nnc4c(-c5ccoc5)cccc43)n2)CC1)N1CCC(O)CC1 [Compound 9, {4-[4-(4-Furan-3-yl-benzotriazol-1-yl)-pyrimidin-2-ylamino]-cyclohexyl}-(4-hydroxy-piperidin-1-yl)-methanone]	39.7	130	243 to 244 °C	≥ 30000
Cc1n[nH]cc1-c1cccc2c1nnn2-c1ccnc(NC2CCN(S(C)(=O)=O)CC2)n1 [Compound 10, (1-Methanesulfonyl-piperidin-4-yl)-{4-[4-(3-methyl-1H-pyrazol-4-yl)-benzotriazol-1-yl]-pyrimidin-2-yl}-amine]	3	14	231 to 232 °C	2160
Cc1noc(C)c1-c1cccc2c1ccn2-c1ccnc(N[C@H]2CC[C@H](C(=O)N3CCC(O)CC3)CC2)n1 [Compound 13, (4-{4-[4-(3,5-Dimethyl-isoxazol-4-yl)-indol-1-yl]-pyrimidin-2-ylamino}-cyclohexyl)-(4-hydroxy-piperidin-1-yl)-methanone]	48.4	225		
Cc1noc(C)c1-c1cccc2c1nnn2-c1ccnc(N[C@H]2CC[C@H](C(=O)N3CCC(O)CC3)CC2)n1 [Compound 4, (4-{4-[4-(3,5-Dimethylisoxazol-4-yl)-benzotriazol-1-yl]-pyrimidin-2-ylamino}-cyclohexyl)-(4-hydroxy-piperidin-1-yl)-methanone]	43.2	105	> 300 °C	2580
Cc1cscc1-c1cccc2c1nnn2-c1ccnc(NC2CCN(S(C)(=O)=O)CC2)n1 [Compound 5, (1-Methanesulfonyl-piperidin-4-yl)-{4-[4-(4-methyl-thiophen-3-yl)-benzotriazol-1-yl]-pyrimidin-2-yl}-amine]	3.6	17.8		13900
Cc1n[nH]cc1-c1cccc2c1ccn2-c1ccnc(N[C@H]2CC[C@H](C(=O)N3CCC(O)CC3)CC2)n1 [Compound 12, (4-Hydroxy-piperidin-1-yl)-(4-{4-[4-(3-methyl-1H-pyrazol-4-yl)-indol-1-yl]-pyrimidin-2-ylamino}-cyclohexyl)-methanone]	31.7	121	215 to 220 °C	2590
O=C([C@H]1CC[C@H](Nc2nccc(-n3nnc4c(-c5ccsc5)cccc43)n2)CC1)N1CCC(O)CC1 [Compound 6, (4-Hydroxy-piperidin-1-yl)-{4-[4-(4-thiophen-3-ylbenzotriazol-1-yl)-pyrimidin-2-ylamino]-cyclohexyl}-methanone]	20.3	67.8	233 to 234 °C	3300
O=C([C@H]1CC[C@H](Nc2nccc(-n3ccc4c(-c5ccsc5)cccc43)n2)CC1)N1CCC(O)CC1 [Compound 18, (4-hydroxy-piperidin-1-yl)-{4-[4-(4-thiophen-3-yl-indol-1-yl)-pyrimidin-2-ylamino]-cyclohexyl}-methanone]	47.9	189	171 to 172 °C	
O=C([C@H]1CC[C@H](Nc2nccc(-n3ccc4c(-c5ccccc5)cccc43)n2)CC1)N1CCC(O)CC1 [Compound 17, (4-Hydroxy-piperidin-1-yl)-{4-[4-(4-phenyl-indol-1-yl)-pyrimidin-2-ylamino]-cyclohexyl}-methanone]	262	856	190 to 191 °C	

The remaining lines, values ahead:

IC50 (Human JNK1α1) [nM]	IC50 (Human JNK2α2) [nM]	melting point	IC50 (phospho-c-Jun) [nM]	SMILES
64.7	220	158 to 160 °C		Cc1ccccc1-c1cccc2c1ccn2-c1ccnc(N[C@H]2CC[C@H](C(=O)N3CCC(O)CC3)CC2)n1 [Compound 15, (4-Hydroxy-piperidin-1-yl)-{4-[4-(4-o-tolyl-indol-1-yl)-pyrimidin-2-ylamino]-cyclohexyl}-methanone]
5.8	19.9	224 to 226 °C and 224.6 to 225.9 °C	678	Cc1ccccc1-c1cccc2c1nnn2-c1ccnc(N[C@H]2CC[C@H](C(=O)N3CCC(O)CC3)CC2)n1 [Compound 2, (4-Hydroxy-piperidin-1-yl)-{4-[4-(4-o-tolyl-benzotriazol-1-yl)-pyrimidin-2-ylamino]-cyclohexyl}-methanone]
27.5	90.4	194.3 to 218.2 °C	2820	Cc1ccncc1-c1cccc2c1nnn2-c1ccnc(N[C@H]2CC[C@H](C(=O)N3CCC(O)CC3)CC2)n1 [Compound 3, (4-Hydroxy-piperidin-1-yl)-(4-{4-[4-(4-methylpyirin-3-yl)-benzotriazol-1-yl]-pyrimidin-2-ylamino}-cyclohexyl)-methanone]
2.8	12.7	246 to 247 °C	703	Cc1cscc1-c1cccc2c1nnn2-c1ccnc(N[C@H]2CC[C@H](C(=O)N3CCC(O)CC3)CC2)n1 [Compound 1]
28.7	91.2	266 to 267 °C	5810	O=C([C@H]1CC[C@H](Nc2nccc(-n3nnc4c(-c5ccncc5)cccc43)n2)CC1)N1CCC(O)CC1 [Compound 8]
5.2	18.6		434	Cc1n[nH]cc1-c1cccc2c1nnn2-c1ccnc(N[C@H]2CC[C@H](C(=O)N3CCC(O)CC3)CC2)n1 [Compound 11, (4-Hydroxy-piperidin-1-yl)-(4-{4-[4-(3-methyl-1H-pyrazol-4-yl)-benzotriazol-1-yl]-pyrimidin-2-ylamino}-cyclohexyl)-methanone]
